In the supplement of paper PMC10307832 one finds relative viability data, which are given here for seven cell lines.

What all share (assay): relative viability (nuclei count vs DMSO), 5 days (fraction); higher = more cells survive
Compound in test [1]: C[C@H]([C@@H](C(=O)N)NC(=O)[C@@H]1CSSC[C@@H](C(=O)N[C@H](C(=O)N[C@@H](C(=O)N[C@H](C(=O)N1)CCCCN)CC2=CNC3=CC=CC=C32)CC4=CC=C(C=C4)O)NC(=O)[C@@H](CC5=CC=CC=C5)N)O [CAP-232] + O=C(c1cc(Cc2n[nH]c(=O)c3ccccc23)ccc1F)N1CCN(C(=O)C2CC2)CC1 [Olaparib] (partner 8 µM)
Put shortly:
(§1)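 Relative viability is defined as nuclei in treated wells over nuclei in vehicle wells. Duplicate plates were run and medians reported. Lung cancer cell lines in 1536-well plates were dosed by pin tool one day after seeding, with one drug or with a fixed anchor-drug dose plus five library-drug doses (not always all listed) in √10 steps, and nuclei were counted after 5 days.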

Compound in test [2]: C[C@H]([C@@H](C(=O)N)NC(=O)[C@@H]1CSSC[C@@H](C(=O)N[C@H](C(=O)N[C@@H](C(=O)N[C@H](C(=O)N1)CCCCN)CC2=CNC3=CC=CC=C32)CC4=CC=C(C=C4)O)NC(=O)[C@@H](CC5=CC=CC=C5)N)O [CAP-232] + C[C@]1(O)C[C@@H](c2nc(-c3ccc4ccc(-c5ccccc5)nc4c3)c3c(N)nccn32)C1 [Linsitinib] (partner 1 µM)
The procedure, abridged:
as §1

Compound in test [3]: C[C@H]([C@@H](C(=O)N)NC(=O)[C@@H]1CSSC[C@@H](C(=O)N[C@H](C(=O)N[C@@H](C(=O)N[C@H](C(=O)N1)CCCCN)CC2=CNC3=CC=CC=C32)CC4=CC=C(C=C4)O)NC(=O)[C@@H](CC5=CC=CC=C5)N)O [CAP-232] + NC(=O)Nc1cc(-c2cccc(F)c2)sc1C(=O)N[C@H]1CCCNC1 [AZD7762] (partner 0.2 µM)
The procedure, abridged: as §1

Compound in test [4]: C[C@H]([C@@H](C(=O)N)NC(=O)[C@@H]1CSSC[C@@H](C(=O)N[C@H](C(=O)N[C@@H](C(=O)N[C@H](C(=O)N1)CCCCN)CC2=CNC3=CC=CC=C32)CC4=CC=C(C=C4)O)NC(=O)[C@@H](CC5=CC=CC=C5)N)O [CAP-232] + CCNC(=O)c1noc(-c2cc(C(C)C)c(O)cc2O)c1-c1ccc(CN2CCOCC2)cc1 [Luminespib] (partner 0.01 µM)
The procedure, abridged: as §1

Compound in test [5]: C[C@H]([C@@H](C(=O)N)NC(=O)[C@@H]1CSSC[C@@H](C(=O)N[C@H](C(=O)N[C@@H](C(=O)N[C@H](C(=O)N1)CCCCN)CC2=CNC3=CC=CC=C32)CC4=CC=C(C=C4)O)NC(=O)[C@@H](CC5=CC=CC=C5)N)O [CAP-232] + CC(=O)c1c(C)c2cnc(Nc3ccc(N4CCNCC4)cn3)nc2n(C2CCCC2)c1=O [Palbociclib] (partner 0.5 µM)
Put shortly: as §1

Regarding NCI-H2126, the relative viability amounted to 0.899 in test [1] (first compound 0.4 µM); 0.866 in test [1] (first compound 1.265 µM); 0.992 in test [1] (first compound 4 µM); 0.914 in test [1] (first compound 12.65 µM); 0.722 in test [2] (first compound 0.4 µM); 0.709 in test [2] (first compound 1.265 µM). Also, the relative viability was 0.736 in test [2] (first compound 4 µM); 0.74 in test [2] (first compound 12.65 µM); 1.11 in test [3] (first compound 0.4 µM); 1.01 in test [3] (first compound 1.265 µM); 1.18 in test [3] (first compound 4 µM); 1.01 in test [3] (first compound 12.65 µM). The relative viability in test [4] (first compound 0.4 µM) stood at 0.909; in test [4] (first compound 1.265 µM) it was 0.955; in test [4] (first compound 4 µM) it was 0.992; in test [4] (first compound 12.65 µM), 0.659; in test [5] (first compound 0.4 µM), 0.345; in test [5] (first compound 1.265 µM) it was 0.315. Moreover, the figures for the relative viability in test [5] (first compound 4 µM) and in test [5] (first compound 12.65 µM) were 0.341 and 0.359, respectively.
As for NCI-H2347, the relative viability in test [1] (first compound 0.4 µM) was determined as 0.651; in test [1] (first compound 1.265 µM), 0.528; in test [1] (first compound 4 µM), 0.606; in test [1] (first compound 12.65 µM), 0.598; in test [2] (first compound 0.4 µM), 0.989; in test [2] (first compound 1.265 µM), 0.967. Also, the relative viability came to 1.04 in test [2] (first compound 4 µM); 1.01 in test [2] (first compound 12.65 µM); 0.733 in test [3] (first compound 0.4 µM); 0.746 in test [3] (first compound 1.265 µM); 0.726 in test [3] (first compound 4 µM); 0.662 in test [3] (first compound 12.65 µM). The relative viability in test [4] (first compound 0.4 µM) was determined as 0.274; in test [4] (first compound 1.265 µM) it was 0.493; in test [4] (first compound 4 µM), 0.443; in test [4] (first compound 12.65 µM), 0.471; in test [5] (first compound 0.4 µM) it was 0.453; in test [5] (first compound 1.265 µM), 0.462. Also, the relative viability in test [5] (first compound 4 µM) came to 0.412; in test [5] (first compound 12.65 µM) it was 0.423.
In the case of NCI-H2405, the relative viability in test [1] (first compound 0.4 µM) is 0.836; in test [1] (first compound 1.265 µM), 0.957; in test [1] (first compound 4 µM), 0.831; in test [1] (first compound 12.65 µM), 0.53; in test [2] (first compound 0.4 µM), 0.789; in test [2] (first compound 1.265 µM) it was 1.06. For the same cell line, the relative viability in test [2] (first compound 4 µM) worked out at 0.868; in test [2] (first compound 12.65 µM) it was 0.547; in test [3] (first compound 0.4 µM), 0.822; in test [3] (first compound 1.265 µM), 0.8; in test [3] (first compound 4 µM), 0.765; in test [3] (first compound 12.65 µM), 0.524. For the same cell line, the relative viability in test [4] (first compound 0.4 µM) was determined as 0.61; in test [4] (first compound 1.265 µM), 0.709; in test [4] (first compound 4 µM), 0.641; in test [4] (first compound 12.65 µM), 0.491; in test [5] (first compound 0.4 µM), 0.553; in test [5] (first compound 1.265 µM) it was 0.563. Also, the values for the relative viability in test [5] (first compound 4 µM) and in test [5] (first compound 12.65 µM) were 0.536 and 0.369, respectively.
For NCI-H3122, the relative viability is 0.664 in test [1] (first compound 0.4 µM); 0.656 in test [1] (first compound 1.265 µM); 0.847 in test [1] (first compound 4 µM); 0.546 in test [1] (first compound 12.65 µM); 0.991 in test [2] (first compound 0.4 µM); 0.979 in test [2] (first compound 1.265 µM). In addition, the relative viability was 1.01 in test [2] (first compound 4 µM); 1.08 in test [2] (first compound 12.65 µM); 0.984 in test [3] (first compound 0.4 µM); 1.08 in test [3] (first compound 1.265 µM); 1.14 in test [3] (first compound 4 µM); 0.958 in test [3] (first compound 12.65 µM). Also, the relative viability turned out to be 0.0705 in test [4] (first compound 0.4 µM); 0.067 in test [4] (first compound 1.265 µM); 0.0822 in test [4] (first compound 4 µM); 0.0819 in test [4] (first compound 12.65 µM); 0.178 in test [5] (first compound 0.4 µM); 0.181 in test [5] (first compound 1.265 µM). Moreover, the relative viability in test [5] (first compound 4 µM) is 0.187; in test [5] (first compound 12.65 µM), 0.214.
As to PC-3 [JPC-3], the relative viability in test [1] (first compound 0.4 µM) amounted to 1.16; in test [1] (first compound 1.265 µM), 1.21; in test [1] (first compound 4 µM) it was 1.2; in test [1] (first compound 12.65 µM), 1.08; in test [2] (first compound 0.4 µM), 1.05; in test [2] (first compound 1.265 µM), 1. In addition, the relative viability came to 0.902 in test [2] (first compound 4 µM); 0.972 in test [2] (first compound 12.65 µM); 1.02 in test [3] (first compound 0.4 µM); 0.735 in test [3] (first compound 1.265 µM); 0.873 in test [3] (first compound 4 µM); 0.794 in test [3] (first compound 12.65 µM). Moreover, the relative viability in test [4] (first compound 0.4 µM) stood at 0.663; in test [4] (first compound 1.265 µM), 0.661; in test [4] (first compound 4 µM), 0.732; in test [4] (first compound 12.65 µM), 0.538; in test [5] (first compound 0.4 µM) it was 0.583; in test [5] (first compound 1.265 µM) it was 0.542. For the same cell line, the relative viability was found to be 0.545 in test [5] (first compound 4 µM) and 0.555 in test [5] (first compound 12.65 µM).
Consider PC-14, for which the relative viability in test [1] (first compound 0.4 µM) came out at 0.265; in test [1] (first compound 1.265 µM) it was 0.264; in test [1] (first compound 4 µM) it was 0.213; in test [1] (first compound 12.65 µM), 0.239; in test [2] (first compound 0.4 µM) it was 1.01; in test [2] (first compound 1.265 µM) it was 0.955. Moreover, the relative viability in test [2] (first compound 4 µM) amounted to 0.955; in test [2] (first compound 12.65 µM), 0.775; in test [3] (first compound 0.4 µM), 0.522; in test [3] (first compound 1.265 µM) it was 0.297; in test [3] (first compound 4 µM), 0.334; in test [3] (first compound 12.65 µM), 0.24. The relative viability in test [4] (first compound 0.4 µM) is 0.26; in test [4] (first compound 1.265 µM), 0.178; in test [4] (first compound 4 µM), 0.183; in test [4] (first compound 12.65 µM), 0.125; in test [5] (first compound 0.4 µM) it was 0.675; in test [5] (first compound 1.265 µM), 0.507. For the same cell line, the relative viability was 0.538 in test [5] (first compound 4 µM) and 0.412 in test [5] (first compound 12.65 µM).
In the case of RERF-LC-KJ, the relative viability in test [1] (first compound 0.4 µM) worked out at 0.98; in test [1] (first compound 1.265 µM) it was 0.893; in test [1] (first compound 4 µM) it was 1.03; in test [1] (first compound 12.65 µM), 0.721; in test [2] (first compound 0.4 µM), 1.01; in test [2] (first compound 1.265 µM) it was 0.886. Further, the relative viability in test [2] (first compound 4 µM) was determined as 0.933; in test [2] (first compound 12.65 µM) it was 0.854; in test [3] (first compound 0.4 µM), 1.01; in test [3] (first compound 1.265 µM), 1.03; in test [3] (first compound 4 µM) it was 0.997; in test [3] (first compound 12.65 µM) it was 0.914. Moreover, the relative viability in test [4] (first compound 0.4 µM) is 1.27; in test [4] (first compound 1.265 µM), 1.39; in test [4] (first compound 4 µM), 1; in test [4] (first compound 12.65 µM) it was 0.918; in test [5] (first compound 0.4 µM), 1.43; in test [5] (first compound 1.265 µM) it was 1.12. Besides, the relative viability worked out at 0.908 in test [5] (first compound 4 µM) and 0.747 in test [5] (first compound 12.65 µM).
